In patent publication US6900187B2, “TRPM-2 antisense therapy using an oligonucleotide having 2′-O-(2-methoxy)ethyl modifications” (The University of British Columbia, priority 1999, dated 2005):
Where two headings read alike, the source gives them in different places.

Key:
[1] = Side effects in Shionogi tumor mice; type: in vivo, mouse; conditions: 12.5 mg/kg i.p. once daily for 40 days
Experimental: Mice were randomly selected for treatment with murine phosphorothioate antisense TRPM-2 ODN (Seq. ID No. 1) or a mismatch control (Seq. ID No. 2) which is two bases different in sequence from the antisense TRPM-2 ODN. Each experimental group consisted of 7 mice. One day after castration, 12.5 mg/kg of antisense TRPM-2 or mismatch control ODN dissolved in phosphate buffered saline were injected intraperitoneally once daily into each mouse of 40 days. Tumor volume was measured twice weekly, and calculated by the formula length×width×depth×0.5236. Gleave et al., Cancer Res. 52: 1598-1605 (1992). Data points were reported as average tumor volumes±standard deviation.

[2] = system: TRPM-2 mRNA; assay: Northern blot of TRPM-2 expression in CaKi-2 cells; type: cell-based, human
Experimental: (§1) Immunohistochemical staining was used to characterize TRPM-2 expression in 17 RCC and normal kidney tissues obtained from radical nephrectomy specimens. TRPM-2 expression in human renal cancer cell lines ACHN, CaKi-1 and CaKi-2 was evaluated by Northern and Western blot analyses. Northern blot analysis was used to assess changes in TRPM-2 mRNA expression after antisense TRPM-2 ODN treatment. The effects of combined antisense TRPM-2 ODN and taxol treatment on CaKi-2 cell growth was examined using a MTT assay (Zellweger et al., Neoplasia 3: 360-367 (2001)).

[3] = system: TRPM-2 mRNA; assay: Northern blot of TRPM-2 mRNA in Shionogi tumor cells in vitro; type: cell-based, mouse; conditions: varying ODN concentrations with lipofectin, treated twice over two days
Experimental: The sequence selectivity of the antisense TRPM-2 ODN (Seq. ID. No. 1) was confirmed by comparing expression levels of TRPM-2 mRNA in Shionogi tumor cells maintained in vitro, after treatment with the varying levels of antisense TRPM-2 ODN or a mismatch control (Seq. ID. No. 2). To facilitate uptake of the ODNs into the cells, the ODNs were formulated in a cationic lipid carrier (Lipofectin, (Life Technologies, Inc.)). Cells were treated twice over a period of two days using the following protocol. Cells were preincubated for 20 minutes with 4 μg/ml of lipofectin in serum free OPTI-MEM (Life Technologies, Inc.) and then incubated with the medium containing the selected concentration of ODN and lipofectin for four hours. The medium was then replaced with the standard culture medium.
The amount of TRPM-2 mRNA in the cells was evaluated using Northern blot analysis. […] In contrast, TRPM-2 mRNA levels were not affected by the mismatch ODN (Seq. ID. No. 2) at any of the employed concentrations. Thus, the affect of antisense TRPM-2 ODN is apparently sequence specific.

[4] = system: human TRPM-2 mRNA; assay: TRPM-2 mRNA expression in PC-3 and TRPM-2 transfected LNCaP cells; type: cell-based
Experimental: The sequences of these ten ODNs are set forth in the attached Sequence Listing as Seq. ID. Nos. 3-12. The ten human antisense ODNs were evaluated using TRPM-2 transfected LNCaP cells and human prostate cancer PC-3 cells for their ability to inhibit expression of TRPM-2 mRNA. […] ID Nos. 4, 5, and 12. Sequence ID No. 5 corresponds to the sequence used by Sensibar, et al. that produced inhibition of TRPM-2 expression in LNCaP cells, and is complementary to the first 21 bases of the TRPM-2 mRNA. […] ID No. 4. Common to all of the effective sequences is an overlap with either the initiation or termination sites of the TRPM-2 mRNA. Thus, it was shown that inhibition of expression of TRPM-2 may be accomplished by the administration of antisense ODNs, particularly antisense ODNs which are complementary to a region of the TRPM-2 mRNA spanning either the translation initiation site or the termination site.
To identify appropriate antisense TRPM-2 ODN sequences for use in human therapy, antisense ODN sequences directed against 10 different sites of the human TRPM-2 gene (FIG. 2, Seq. ID Nos. 3-12) were synthesized and tested for their ability to decrease TRPM-2 gene expression in human prostate cancer PC-3 and transfected LNCaP cells that overexpress TRPM-2 using the same treatment protocol described in Example 2. As shown, sequences 4, 5 and 12 are active for reduction of TRPM-2 expression. These three sequences overlap or are immediately adjacent to the translation initiation or termination sites.

[5] = system: TRPM-2; conditions: cited from earlier work
[6] = system: human RCC CaKi-2 cells; assay: MTT assay of CaKi-2 cell growth, ODN plus taxol; type: cell-based; conditions: CAKI-2, CaKi-2 cells
Experimental: as §1

[7] = system: Shionogi cells; assay: Viability of Shionogi cells treated with chemotherapy agent plus ODN; type: cell-based, mouse; conditions: antisense Bcl-2 ODN added to antisense TRPM-2 ODN and taxol
Experimental: Shionogi cells maintained in vitro were treated with varying amounts of taxol alone or in combination with 500 nM antisense TRPM-2 ODN (Seq. ID. No. 1) or the mismatch control (Seq. ID No. 2). The cells were treated twice, as described in Example 2, and the percentage of viable cells remaining was determined. As shown, the inclusion of antisense TRPM-2 ODN shifted the dose-response curve to the left, lowering the IC50 by a factor of 5 to 10.
The experiment of Example 3 was repeated, with the addition of antisense Bcl-2 ODN (Seq. ID. No. 13) or a mismatch Bcl-2 ODN (Seq. ID. No. 14) in various combinations with antisense/mismatch TRPM-2 ODN and taxol. […] Thus, the targeting of additional anti-apoptotic agents appears to provide therapeutic benefits.

mismatch control ODN: mismatch control two bases different in sequence from the antisense TRPM-2 ODN (DNA GCACAGCAGCAGGATCTTCAT; DNA, backbone and methylation of C not given here)
side effects [1]: No side effects
TRPM-2 expression in CaKi-2 cells [2]: not
TRPM-2 mRNA levels in Shionogi cells [3]: not affected

Seq. ID No. 12: human antisense phosphorothioate ODN overlapping or adjacent to translation initiation or termination site of TRPM-2 mRNA (GCTGGGCGGAGTTGGGGGCCT; DNA, all phosphorothioate, methylation of C not given here)
inhibition of TRPM-2 mRNA expression [4]: best results
inhibition of TRPM-2 mRNA expression ([4]; listed as 12): active

antisense molecule corresponding to the bases 1-21 of the TRPM-2 sequence: antisense molecule of Sensibar et al.; Seq. ID No. 5 corresponds to its sequence (antisense ATTGTCTGAGACCGTCTGGTC; listed as DNA, chemistry not given here)
apoptotic cell death ([5]; LNCaP cells exposed to TNFα): increase in apoptotic cell death
expression of TRPM-2 ([5]; transfected LNCaP cells): substantial reduction in expression of TRPM-2

CC(=O)O[C@H]1C(=O)[C@@]2(C)[C@H]([C@H](OC(=O)c3ccccc3)[C@]3(O)C[C@H](OC(=O)[C@H](O)[C@@H](NC(=O)c4ccccc4)c4ccccc4)C(C)=C1C3(C)C)[C@]1(OC(C)=O)CO[C@@H]1C[C@@H]2O [taxol]
IC50 ([6]; with antisense TRPM-2 ODN): 50 nM
IC50 ([6]; with mismatch control ODN): 500 nM

antisense Bcl-2 ODN: antisense Bcl-2 ODN (Seq. ID. No. 13) (antisense TCTCCCGGCTTGCGCCAT; listed as DNA, chemistry not given here)
cytotoxic effects of taxol in combination with antisense TRPM-2 ODN and antisense Bcl-2 ODN [7]: further enhanced the cytotoxic effects of taxol

Seq. ID No. 5: human antisense phosphorothioate ODN complementary to the first 21 bases of the TRPM-2 mRNA (ATTGTCTGAGACCGTCTGGTC; DNA, all phosphorothioate, methylation of C not given here)
inhibition of TRPM-2 mRNA expression [4]: best results
inhibition of TRPM-2 mRNA expression ([4]; listed as 5): active
